Results: publication PMC10931776, “Modes of Interactions with DNA/HSA Biomolecules and Comparative Cytotoxic Studies of Newly Synthesized Mononuclear Zinc(II) and Heteronuclear Platinum(II)/Zinc(II) Complexes toward Colorectal Cancer Cells” (International Journal of Molecular Sciences, 2024)
Where two headings read alike, the source gives them in different places.

Key:
[1] = system: human colorectal carcinoma (HCT116); test: MTT cytotoxicity assay, HCT116; format: cell-based; details: 48 h; for IC50: read-out: IC50 ± SEM, HCT 116
Protocol: (§1) The in vitro cytotoxicity of newly synthesized mono- and heteronuclear platinum(II)/and zinc(II) complexes, featuring a 4,4′,4″-tri-tert-butyl-2,2′:6′,2″-terpyridine ligand (designated as C1–C5), was assessed using MTT assay procedures. This evaluation targeted various cell lines: mouse colorectal carcinoma (CT26), human colorectal carcinoma (HCT116 and SW480), and non-cancerous mouse mesenchymal stem cells (mMSC). These cell lines were exposed to synthesized complexes for 48 h, with concentrations ranging from 1.17 to 150 μM.
(§2) In our study, various cell lines were cultured, including mouse colorectal carcinoma (CT26), human colorectal carcinoma (HCT116 and SW480) obtained from ATCC, USA, and mouse mesenchymal stem cells (mMSC, Gibco), New York, NY, USA). These cell lines were consistently maintained in complete Dulbecco’s Modified Eagle Medium (DMEM) supplemented with 10% fetal bovine serum (FBS) (Sigma Aldrich, St. Louis, MO, USA), 100 IU/mL penicillin, and 100 μg/mL streptomycin antibiotics (Invitrogen, Carlsbad, CA, USA). The cultures were incubated at 37 °C in a humidified atmosphere of 5% carbon dioxide (CO2). […] The viability and count of the cells were determined using Trypan blue staining, ensuring the accuracy and reliability of the experimental outcomes.
(§3) The cytotoxic effects of five newly synthesized complexes, alongside cisplatin, were assessed through the MTT assay method, in line with previously established protocols. During the exponential growth phase, cells were collected from culture flasks, counted, and then seeded in 96-well culture plates at a density of 5·10^3 cells per well. Subsequent treatment involved exposing these cells to varying concentrations of the newly synthesized complexes and cisplatin (ranging from 1.17 to 150 μM) for a duration of 48 h, with fresh complete medium serving as the control. The results were quantified relative to the control (untreated cells), providing a comparative measure of cytotoxicity. Additionally, IC50 values, representing the concentration required to inhibit 50% of the cell viability, were calculated using Microsoft Office Excel 2010. Lastly, the data were presented as percentages of viable cells in accordance with the methodology outlined in the referenced study, facilitating a comprehensive understanding of the anticancer potential of these compounds.

[2] = biological target: T1, Human serum albumin (HSA) (Homo sapiens, UniProt P02768); test: HSA fluorescence quenching; format: binding; details: for Stern–Volmer constant Ksv, HSA: HSA 2 µM, complex 0–30 µM, PBS pH 7.4, room temperature, λex 295 nm
T1 construct: reagents in general came from Sigma-Aldrich, Acros Organics or Merck
T1 sequence (P02768 25-609): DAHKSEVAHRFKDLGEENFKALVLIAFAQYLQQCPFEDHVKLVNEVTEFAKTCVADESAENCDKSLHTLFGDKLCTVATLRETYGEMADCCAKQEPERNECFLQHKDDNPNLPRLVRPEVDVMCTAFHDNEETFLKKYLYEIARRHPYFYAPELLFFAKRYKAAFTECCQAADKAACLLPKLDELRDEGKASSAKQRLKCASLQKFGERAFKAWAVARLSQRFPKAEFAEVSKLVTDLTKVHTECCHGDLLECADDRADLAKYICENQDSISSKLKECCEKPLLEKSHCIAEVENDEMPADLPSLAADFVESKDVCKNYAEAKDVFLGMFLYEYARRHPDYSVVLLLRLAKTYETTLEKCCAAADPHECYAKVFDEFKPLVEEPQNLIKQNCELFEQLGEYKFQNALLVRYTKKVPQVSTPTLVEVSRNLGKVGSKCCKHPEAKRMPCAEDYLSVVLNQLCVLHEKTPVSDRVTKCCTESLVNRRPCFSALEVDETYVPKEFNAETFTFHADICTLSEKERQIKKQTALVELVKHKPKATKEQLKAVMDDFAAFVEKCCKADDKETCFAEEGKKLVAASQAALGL
Source text: Human serum albumin (HSA) produces a fluorescence signal when excited at 295 nm due to the tryptophan residues. This characteristic makes fluorescence spectroscopy an effective tool for studying complex interactions involving HSA. If the examined complex interacts with HSA, an increasing concentration of the complex will lead to a decrease in fluorescence, as shown in Figure 4 and Figures S14–S17. […] The Stern–Volmer equation (Equation (S2)) was used to determine the Stern–Volmer constant, Ksv, for the HSA interactions.
The binding affinity of the complexes C1–C5 to HSA has been determined through fluorescence quenching experiments. The measurements were conducted in a 0.01 M PBS with a pH of 7.4 at room temperature. The HSA concentration was kept constant at 2 μM while the concentration of complexes C1–C5 was increased from 0 to 30 μM, resulting in a significant decrease in emissions at 352 nm. Before each measurement, the system was shaken at room temperature. The fluorescence intensity was measured with the wavelength of excitation at 295 nm and recorded in the 300 to 500 nm range. The width of the excitation and emission slits (10 nm) and scan rate were maintained at a constant rate. The Stern–Volmer constants, Ksv, were determined by Equation (2).

[3] = system: mouse mesenchymal stem cells (mMSC); test: MTT cytotoxicity assay, mMSC; format: cell-based; details: 48 h, non-cancerous cells, read-out: IC50 ± SEM, mMSCs
Protocol: as §1
In the context of developing low-toxicity drugs, it is imperative to evaluate the antiproliferative activity against normal cells. The in vitro toxicity of the tested complexes toward normal mouse mesenchymal stem cells (mMSC) was examined. […] These findings indicate the possibility of enhanced in vivo tolerance for this complex.
as §2, §3

[4] = system: mouse colorectal carcinoma (CT26); test: MTT cytotoxicity assay, CT26; format: cell-based; details: 48 h; for IC50: read-out: IC50 ± SEM, CT26
Protocol: as §1, §2, §3

[5] = system: human colorectal carcinoma (SW480); test: MTT cytotoxicity assay, SW480; format: cell-based; details: 48 h; for IC50: read-out: IC50 ± SEM, SW480
Protocol: as §1, §2, §3

[6] = system: CT-DNA; test: Ethidium bromide/CT-DNA fluorescence quenching (EB displacement); format: binding; details: EB/CT-DNA 1:1, 5 µM, PBS pH 7.4, room temperature, λex 527 nm, λem 612 nm
Source text: Fluorescent spectroscopy allows the determination of the intercalation potential of compounds. Intercalation involves planar aromatic molecules binding between the base pairs of DNA chains, causing them to elongate. Ethidium bromide (EB) is commonly used as a DNA intercalator and produces high levels of fluorescent emissions at 612 nm when intercalating between DNA strands. However, the addition of compounds that can intercalate between DNA strands and suppress the effects of EB will reduce fluorescent emissions. If a complex is able to replace EB, fluorescence reduction will occur, indicating the complex’s ability to bind intercalatively. Figure 3 and Figures S10–S13 show the results of fluorescence titrations in the presence of intercalator EB, where the emission intensity of a constant CT-DNA/EB solution concentration of 5 µM was monitored with increasing complex concentration up to a ratio of 5.
To determine whether the complex could displace EB from the CT-DNA-EB complex, the interactions of the complex with CT-DNA were examined in the presence of EB. The CT-DNA-EB solution was formed by combining EB and CT-DNA solutions with a concentration of 5 μM at a pH of 7.4. The impact of the complex binding to the CT-DNA was measured by analyzing the fluorescence emission spectrum after the addition of the examined complexes solution in increasing concentration, Figure 3.
The binding affinity of the complexes C1–C5 to CT-DNA via intercalation was determined using fluorescence spectroscopy. All measurements were conducted at room temperature in 0.01 M PBS with a pH of 7.4. Fluorescence measurements were performed by adding increasing complex concentrations (0–50 μM) to a CT-DNA and EB solution. Before each measurement, the system was shaken at room temperature. The fluorescence intensity was measured with the wavelength of excitation at 527 nm and the wavelength of emission at 612 nm. The width of the excitation and emission slits (10 nm) and scan rate were maintained at a constant rate. The emission of the solution was recorded in the range of 550 to 750 nm. The Stern–Volmer constants, Ksv, were determined by Equation (2). I0/I = 1 + Ksv[Q](2) [Q] is the concentration of the complex, I0 and I represent emission intensities in the absence and presence of complex, and Ksv is the Stern–Volmer constant obtained from the slope of the plot of I0/I vs. [Q] [25, 26, 27, 28].

[7] = biological target: T1, Human serum albumin (HSA); design: method as in earlier work; details: literature value; ref [24]; cited from earlier work
[8] = biological target: B-DNA (PDB ID: 1BNA); design: method as in PMID 36535193, doi:10.1002/aoc.7413; details: previously tested complexes; ref [11],[12]; read-out: Ki (inhibition constant), docking with DNA; cited from earlier work

Stern–Volmer constant Ksv, HSA [2] | Molecule | Selectivity Index (IC50 mMSC/IC50), HCT 116 [1] | IC50 [1] [µM] | IC50 [3] [µM] | Selectivity Index (IC50 mMSC/IC50), CT26 [4] | IC50 [4] [µM] | Selectivity Index (IC50 mMSC/IC50), SW480 [5] | IC50 [5] [µM] | Stern–Volmer constant Ksv, CT-DNA [6] | Ki [8] [µM] | further results
5.8 ± 0.1 10^4 M^–1 | CC(C)(C)c1ccnc(-c2cc(C(C)(C)C)cc(-c3cc(C(C)(C)C)ccn3)n2)c1.N.N.[Cl-].[Cl-].[O-][Cl+3]([O-])([O-])[O-].[O-][Cl+3]([O-])([O-])[O-].[Pt+2].[Zn+2].c1cnccn1 [C2, [{cis-PtCl(NH3)2(μ-pyrazine)ZnCl(terpy^t^Bu)}](ClO4)2] | 0.4 | 26.6 ± 25.9 | 10.1 ± 0.98 | 0.3 | 35.1 ± 39.6 | 0.4 | 25.7 ± 2.93 | 2.9 ± 0.1 10^4 M^–1 | – | –
– | N.N.[Cl][Pt][Cl] [cisplatin, reference compound] | 0.5 | 14.7 ± 2.21 | 7.32 ± 2.51 | 0.8 | 9.03 ± 3.55 | 0.7 | 10.1 ± 3.98 | – | – | Stern–Volmer constant Ksv, HSA [7]: 0.24 ** 10^4 M^–1
– | [{cis-PtCl(NH3)2(μ-4,4′-bipyridyl)ZnCl(terpy)}](ClO4)2 [C3b] | – | – | – | – | – | – | – | – | 1.01 | –
– | [{cis-PtCl(NH3)2(μ-4,4′-bipyridyl)ZnCl(terpy-Cl)}](ClO4)2 [C3a] | – | – | – | – | – | – | – | – | 52.1 | –
22.7 ± 0.1 10^4 M^–1 | [{cis-PtCl(NH3)2(μ-4,4′-bipyridyl)ZnCl(terpy^t^Bu)}](CIO4)2 [C4] | 0.7 | 89.4 ± 6.7 | 60.3 ± 24.7 | 0.3 | 183 ± 72.4 | 0.6 | 94.1 ± 9.89 | 5.2 ± 0.1 10^4 M^–1 | – | Ksv value for HSA, order of magnitude ([2]; fluorescence quenching of HSA): ~10^5 M^−1
– | [{cis-PtCl(NH3)2(μ-pyrazine)ZnCl(terpy)}](ClO4)2 [C1b] | – | – | – | – | – | – | – | – | 18.1 | –
– | [{cis-PtCl(NH3)2(μ-pyrazine)ZnCl(terpy-Cl)}](ClO4)2 [C1a] | – | – | – | – | – | – | – | – | 248 | –
– | [{trans-PtCl(NH3)2(μ-4,4′-bipyridyl)ZnCl(terpy)}](ClO4)2 [C4b] | – | – | – | – | – | – | – | – | 1.22 | –
– | [{trans-PtCl(NH3)2(μ-4,4′-bipyridyl)ZnCl(terpy-Cl)}](ClO4)2 [C4a] | – | – | – | – | – | – | – | – | 117 | –
9.5 ± 0.1 10^4 M^–1 | [{trans-PtCl(NH3)2(μ-4,4′-bipyridyl)ZnCl(terpy^t^Bu)}](CIO4)2 [C5] | 0.3 | 152 ± 26.8 | 40.2 ± 3.96 | 0.4 | 108 ± 79.9 | 0.5 | 75.4 ± 21.2 | 2.9 ± 0.1 10^4 M^–1 | – | –
– | [{trans-PtCl(NH3)2(μ-pyrazine)ZnCl(terpy)}](ClO4)2 [C2b] | – | – | – | – | – | – | – | – | 16.3 | –
– | [{trans-PtCl(NH3)2(μ-pyrazine)ZnCl(terpy-Cl)}](ClO4)2 [C2a] | – | – | – | – | – | – | – | – | 231 | –
4.5 ± 0.1 10^4 M^–1 | [{trans-PtCl(NH3)2(μ-pyrazine)ZnCl(terpy^t^Bu)}](ClO4)2 [C3] | 0.4 | 181 ± 105 | 76.2 ± 12 | 0.4 | 210 ± 87 | 1.1 | 68.1 ± 5.21 | 2.1 ± 0.1 10^4 M^–1 | – | –
